# Experimental data as given in patent US20260109712A1, “RIFAMYCINS FOR NONTUBERCULOUS MYCOBACTERIA” (priority 2022, published 2026).
# Where two headings read alike, the source gives them in different places.
# What was measured:
# M. abscessus ATCC 19977 = assay: MIC assay in 96-well plate format, wild-type strain; format: cell-based, Mycobacterium abscessus
# Outline: (§1)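 Two-fold, ten-point dilutions in 7H9 with 2% DMSO; mid-log culture diluted to OD600=0.1 (1×10^7 CFU/mL). Incubated 3 days at 37 °C, shaking 110 RPM; growth = Day 3 minus Day 0 OD600, expressed as percentage of drug-free growth and plotted against concentration. Two biological replicates.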
# Δarr M. abscessus = assay: MIC assay, isogenic arr-deleted strain; format: cell-based, Mycobacterium abscessus; conditions: for Δarr Mab MIC: arr-deleted strain, 90% growth inhibition
# Outline: as §1
# M. abscessus Bamboo [1] = assay: MIC assay, clinical isolate Bamboo; format: cell-based, Mycobacterium abscessus
# M. abscessus Bamboo [2] = assay: Broth MBC90 (bMBC90); format: cell-based, Mycobacterium abscessus
# Description: Broth MIC, broth MBC90 (bMBC90), and caseum surrogate MBC90 ([…]) of clinically used antibiotics and of novel ADP-ribosylation-resistant rifabutin analogs against M. abscessus Bamboo have been evaluated.
# M. abscessus Bamboo [3] = assay: Caseum surrogate MBC90 (cMBC90) kill assay; format: cell-based, Mycobacterium abscessus; conditions: for MBC: read-out: cMBC90
# Description: (§2) The surrogate matrix was generated as described previously from cultured THP-1 cells (ATCC TIB-202) (mBio, 2023, 14, e0059823). M. abscessus exponential cultures grown in Middlebrook 7H9 broth (Sigma Aldrich) (OD600 0.6-0.9) were spun down and resuspended in water to an OD600 of 7, 0.7, and 0.07. As described for the M. tuberculosis caseum surrogate assay (mnBio, 2023, 14, e0059823), the bacterial suspensions (at three different dilutions resulting in ˜10^9, 10^8, and 10^7 starting CFU/mL, represented by circle, square, and triangle indicators respectively) were added to the caseum surrogate in the ratio 2:1 (vol/wt), briefly homogenized with 1.4-mm zirconia beads, divided evenly into nine 1.5-mL microcentrifuge tubes, and incubated as standing cultures at 37° C. At the indicated time points, tubes were removed and used for CFU enumeration by plating on Middlebrook 7H11 agar (Sigma Aldrich). Separate tubes were used at each time point. To determine the kill curves, cultures with a starting CFU/mL of 10^8 were used (resulting in the middle curve with square indicators). Arrows indicate the time points when drugs were added and the end of the treatment. The experiment was repeated three times independently, yielding similar results. A representative example is shown. Dots and error bars represent means and standard deviations of three technical replicates, respectively.
# FIGS. 29A-29M show the Dose-response kill curves against M. abscessus Bamboo in caseum surrogate. M. abscessus cultures were set up as described in the legend of FIG. 28. Bacterial cell suspensions were added to yield a starting CFU of 10^8/mL (FIG. 28, middle growth curve with square indicators). […] The shaded areas indicate drug concentration windows achieved in caseum in vivo. (Antimicrob. Agents Chemother., 2021, 65, e0050621; Antimicrob. Agents Chemother., 2022, 66, e0221221; PLoS Med., 2019, 16, e1002773; ACS Infect. Dis., 2016, 2, 251-267). The experiment was repeated twice independently, yielding similar results. A representative example is shown. Dots and error bars represent means and standard deviations of three technical replicates, respectively. Horizontal dotted lines indicate the cutoff for 1 log reduction in CFU compared to 10-day drug-free control culture. The cMBC90 values shown in Table 16 are the drug concentrations that reduce CFU by 90% relative to the CFU of drug-free controls at day 10. Since the cultures were in the stationary phase on day 5 when drug treatment started, the CFUs of the drug-free cultures at day 10 were similar to the CFUs of the drug-free cultures at day 5 (FIG. 28).
# as §2, with “(doi: 10.1128/mbio.00598-23).” for “(mBio, 2023, 14, e0059823).”, “(doi: 10.1128/mbio.00598-23),” for “(mnBio, 2023, 14, e0059823),”, “CFU/mL)” for “CFU/mL, represented by circle, square, and triangle indicators respectively)”, “curves for the drugs,” for “curves,”, “used.” for “used (resulting in the middle curve with square indicators). Arrows indicate the time points when drugs were added and the end of the treatment.”, “results.” for “results. A representative example is shown. Dots and error bars represent means and standard deviations of three technical replicates, respectively.”
# The experiment was repeated twice independently, yielding similar results. A representative example is shown. The cMBC90 values shown in Table 16 are the drug concentrations that reduce CFU by 90% relative to the CFU of drug-free controls at day 10. […]
# [4] = Mouse pharmacokinetics studies; format: in vivo, CD-1 mice; conditions: for AUCp.o.: po
# Experimental: Blood was captured in CB300 blood collection tubes containing K2EDTA and stored on ice. Plasma was recovered after centrifugation and stored at −80° C. until analyzed by high pressure liquid chromatography coupled to tandem mass spectrometry (LC-MS/MS). Pharmacokinetic parameters were calculated using non-compartmental pharmacokinetic analysis. […] Extracts were vortexed for 5 minutes and centrifuged at 4000 RPM for 5 minutes. 75 μL of supernatant was transferred for LC-MS/MS analysis and diluted with 75 μL of Milli-Q deionized water. Rifabutin was purchased from Carbosynth. C25-desacetyl rifabutin and rifabutin-d7 were purchased from Toronto Research Chemical. Verapamil was purchased from Sigma-Aldrich. […] Multiple-reaction monitoring of parent/daughter transitions in electrospray positive-ionization mode was used to quantify all analytes. […] Data processing was performed using Analyst software (version 1.6.2; Applied Biosystems Sciex).
# [5] = Plasma protein binding assay (rapid equilibrium dialysis); format: in vitro ADME
# Outline: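 Plasma was spiked to 10,000 ng/mL compound and dialysed against PBS by rapid equilibrium dialysis for 4 h at 37° C with shaking at 300 RPM. Plasma and buffer aliquots were matrix-matched 1:1 […] and quantified by LC-MS/MS.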
# Mycobacterium abscessus = assay: MIC against Mycobacterium abscessus (strain not given); format: cell-based
# RFB-R1 M. abscessus = assay: microbe, parasite or virus in culture; format: cell-based, Mycobacterium abscessus; conditions: Mycobacteroides abscessus, read-out: RFB-R1 M. abscessus MIC
# [6] = Mycobacteroides abscessus, broth, M. abscessus Bamboo, Table 16, read-out: MIC
# [7] = Mycobacteroides abscessus, 120 h, broth, 5 days
# [8] = Mycobacteroides abscessus, 120 h
# Experimental for CYP3A4: The threshold cycle (CT) was measured for each isoform cDNA by real time qRT-PCR. The mRNA level of each isoform was assessed by the relative quantifiation with reference gene (GAPDH) as the normalizer method. The normalized fold induction was calculated by 2^−ΔΔCT method, in which 0.1% DMSO was used as the reference (vehicle control). The induction potential of each test compound was analyzed by comparing its fold induction to a pre-determined cutoff value for each lot of hepatocytes. The hepatocytes lots used in this study were validated using 10 known inducers and 5 known non-inducers for each isozyme. A cutoff value is determined based on the validation study for each hepatocytes lot.
smiles,measurement,setting,value
"CO[C@H]1/C=C/O[C@@]2(C)Oc3c(C)c(O)c4c(c3C2=O)C2=NC3(CCN(CC(C)C)CC3)NC2=C(NC(=O)/C(C)=C/C=C/[C@H](C)[C@H](O)[C@@H](C)[C@@H](O)[C@@H](C)[C@H](OC(=O)c2cncnc2)[C@@H]1C)C4=O [5n, 25-O-(5-pyrimidinecarbonyl)-25-O-desacetyrifabutin]",MIC,"M. abscessus ATCC 19977; M. abscessus ATCC 19977, 90% growth inhibition, read-out: WT Mab MIC",0.018 µM
same,MIC ratio,M. abscessus ATCC 19977; WT MIC/Δarr strain MIC,0.72
same,Δarr Mab MIC,Δarr M. abscessus,0.025 µM
same,MIC,"M. abscessus Bamboo [1]; broth, M. abscessus Bamboo, Table 16, read-out: MIC",0.03 µM
same,MBC,"M. abscessus Bamboo [2]; broth, 5 days",0.13 µM
same,cMBC90/bMBC90,M. abscessus Bamboo [3]; 5-day assays,5
same,MBC,"M. abscessus Bamboo [3]; caseum surrogate, 5 days, 90% CFU reduction vs drug-free control",0.65 µM
NCC[C@H](O)C(=O)N[C@@H]1C[C@H](N)[C@@H](O[C@H]2O[C@H](CN)[C@@H](O)[C@H](O)[C@H]2O)[C@H](O)[C@H]1O[C@H]1O[C@H](CO)[C@@H](O)[C@H](N)[C@H]1O [Amikacin],MIC,M. abscessus Bamboo [1]; [6],25 µM
same,MBC,M. abscessus Bamboo [2]; [7],40 µM
same,cMBC90/bMBC90,M. abscessus Bamboo [3]; 5-day assays,0.3
same,MBC,M. abscessus Bamboo [3]; [8],12 µM
"COc1nc2ccc(Br)cc2cc1[C@@H](c1ccccc1)[C@@](O)(CCN(C)C)c1cccc2ccccc12 [Bedaquiline, bedaquiline]",MIC,M. abscessus Bamboo [1]; [6],0.4 µM
same,MBC,"M. abscessus Bamboo [2]; Mycobacteroides abscessus, 240 h, assay extended to 10 days",2 µM
same,cMBC90/bMBC90,M. abscessus Bamboo [3]; 10-day assays,33.5
same,MBC,"M. abscessus Bamboo [3]; Mycobacteroides abscessus, 240 h, caseum surrogate, assay extended to 10 days",67 µM
"CO[C@@]1(NC(=O)Cc2cccs2)C(=O)N2C(C(=O)O)=C(COC(N)=O)CS[C@@H]21 [Cefoxitin, cefoxitin]",MIC,M. abscessus Bamboo [1]; [6],29 µM
same,MBC,M. abscessus Bamboo [2]; [7],45 µM
same,cMBC90/bMBC90,M. abscessus Bamboo [3]; 5-day assays,0.78
same,MBC,M. abscessus Bamboo [3]; [8],35 µM
"CC(C)/N=c1\cc2n(-c3ccc(Cl)cc3)c3ccccc3nc-2cc1Nc1ccc(Cl)cc1 [Clofazimine, clofazimine]",MIC,M. abscessus Bamboo [1]; [6],12.5 µM
same,MBC,M. abscessus Bamboo [2]; [7],> 128 µM
same,MBC,M. abscessus Bamboo [3]; [8],> 128 µM
"C[C@@H](O)[C@H]1C(=O)N2C(C(=O)O)=C(SCCN=CN)C[C@H]12 [Imipenem, imipenem]",MIC,M. abscessus Bamboo [1]; [6],10 µM
same,MBC,M. abscessus Bamboo [2]; [7],18 µM
same,cMBC90/bMBC90,M. abscessus Bamboo [3]; 5-day assays,2.3
same,MBC,M. abscessus Bamboo [3]; [8],42 µM
"CC(=O)NC[C@H]1CN(c2ccc(N3CCOCC3)c(F)c2)C(=O)O1 [Linezolid, linezolid]",MIC,M. abscessus Bamboo [1]; [6],25 µM
same,MBC,M. abscessus Bamboo [2]; [7],32 µM
same,cMBC90/bMBC90,M. abscessus Bamboo [3]; 5-day assays,16
same,MBC,M. abscessus Bamboo [3]; [8],512 µM
"COc1c(N2C[C@@H]3CCCN[C@@H]3C2)c(F)cc2c(=O)c(C(=O)O)cn(C3CC3)c12 [Moxifloxacin, moxifloxacin]",MIC,M. abscessus Bamboo [1]; [6],6 µM
same,MBC,M. abscessus Bamboo [2]; [7],2 µM
same,cMBC90/bMBC90,M. abscessus Bamboo [3]; 5-day assays,4
same,MBC,M. abscessus Bamboo [3]; [8],8 µM
"CN(C)c1cc(NC(=O)CNC(C)(C)C)c(O)c2c1C[C@H]1C[C@H]3[C@H](N(C)C)C(O)=C(C(N)=O)C(=O)[C@@]3(O)C(O)=C1C2=O [Tigecycline, tigecycline]",MIC,M. abscessus Bamboo [1]; Mycobacteroides abscessus,12.5 µM
same,MBC,M. abscessus Bamboo [2]; [7],8 µM
same,cMBC90/bMBC90,M. abscessus Bamboo [3]; 5-day assays,1
same,MBC,M. abscessus Bamboo [3]; [8],8 µM
CO[C@H]1/C=C/O[C@@]2(C)Oc3c(C)c(O)c4c(c3C2=O)C2=NC3(CCN(CC(C)C)CC3)NC2=C(NC(=O)/C(C)=C/C=C/[C@H](C)[C@H](O)[C@@H](C)[C@@H](O)[C@@H](C)[C@H](OC(=O)NC2CCN(Cc3ccccc3)CC2)[C@@H]1C)C4=O [UMN15],MICWT,M. abscessus ATCC 19977; Table 10,0.013 µM
same,MIC,"M. abscessus ATCC 19977; Table 14, carbamate analogs, read-out: WT Mab MIC",0.013 µM
same,MICΔorr,Δarr M. abscessus; Table 10,0.028 µM
same,ƒAUC/MIC,[4]; Table 18,0.8
same,CL,"[4]; mouse, in vivo",6.40 mL/min/kg
same,F,"[4]; mouse, in vivo",35%
same,Vd,"[4]; mouse, in vivo",5.92 L/kg
same,AUCp.o.,"[4]; mouse, in vivo",5658 ng·h/mL
same,ƒu,[5],0.2%
same,plasma unbound fraction,[5]; plasma,0.19%
same,MIC,"Mycobacterium abscessus; Table 22, read-out: MICMab",0.013 µM
same,CYP3A4 gene fold-induction at 10 μM,CYP3A4,1.2
CO[C@H]1/C=C/O[C@@]2(C)Oc3c(C)c(O)c4c(c3C2=O)C2=NC3(CCN(CC(C)C)CC3)NC2=C(NC(=O)/C(C)=C/C=C/[C@H](C)[C@H](O)[C@@H](C)[C@@H](O)[C@@H](C)[C@H](OC(=O)Nc2cnccn2)[C@@H]1C)C4=O [UMN120],MIC,"M. abscessus ATCC 19977; Table 15, heterocyclic aromatic carbamates, read-out: WT Mab MIC",0.028 µM
same,F,"[4]; mouse, in vivo",73%
same,ƒAUC/MIC,"[4]; mouse, in vivo",88.8
same,AUCp.o.,"[4]; mouse, in vivo",55072 ng·h/mL
same,ƒu,[5],4.2%
same,"plasma unbound (ƒu, %)",[5]; plasma,4.2%
same,MIC,"Mycobacterium abscessus; Table 22, read-out: MICMab",0.028 µM
same,MIC,"Mycobacterium abscessus; against Mycobacterium abscessus, Table 19, read-out: MIC",0.028 µM
same,CYP3A4 gene fold-induction at 10 μM,CYP3A4,0.7
"CO[C@H]1/C=C/O[C@@]2(C)Oc3c(C)c(O)c4c(O)c(c(/C=N/N5CCN(C)CC5)c(O)c4c3C2=O)NC(=O)/C(C)=C\C=C\[C@H](C)[C@H](O)[C@@H](C)[C@@H](O)[C@@H](C)[C@H](OC(C)=O)[C@@H]1C [rifampicin, reference compound]",MIC,"M. abscessus ATCC 19977; Mycobacteroides abscessus, ATCC19977, read-out: WT Mab MIC",5.3 µM
same,Δarr Mab MIC,Δarr M. abscessus,0.26 µM
same,MIC,RFB-R1 M. abscessus,> 100 µM
same,MIC,"Mycobacterium abscessus; Mycobacteroides abscessus, 72 h, Table 22, read-out: MICMab",5.3 µM
